Assay [1] has as its target Mitogen-activated protein kinase kinase kinase kinase 5 (Homo sapiens) (UniProt Q9Y4K4). The assay can be described thus: Selectivity interaction (ProQinase) EUB0000171b MAP4K5.
Assay [2] has as its target Calcium/calmodulin-dependent protein kinase type II subunit beta (Homo sapiens) (UniProt Q13554). The following applies: at 10 µM.
For assay [3], the target named is RAC-alpha serine/threonine-protein kinase (Homo sapiens, UniProt P31749). As to the kind of experiment: Selectivity interaction (KinomeScan (DiscoverX)) EUB0000092b AKT1. Particulars: at 10 µM.
For assay [4], the target named is Serine/threonine-protein kinase PAK 2 (Homo sapiens) (UniProt Q13177). As to the kind of experiment: Selectivity interaction (Kinase panel (Eurofins)) EUB0001564a PAK2. Particulars: at 1 µM.
The target in assay [5] is Glycogen synthase kinase-3 alpha (Homo sapiens, UniProt P49840). As to the kind of experiment: Selectivity interaction (KinomeScan (DiscoverX)) EUB0000695a GSK3A. Particulars: at 100 nM.
The target of assay [6] is Mitogen-activated protein kinase 4 (Homo sapiens) (UniProt P31152). As to the kind of experiment: Selectivity interaction (KinomeScan (DiscoverX)) EUB0000695a MAPK4. The following applies: at 100 nM.
Assay [7] in a line: Selectivity interaction (PWWP, WD40, and Tudor domain panel (DSLS measurements, literature)) EUB0000270b WDR20.
In assay [8] the target is T1, Cyclin-dependent kinase 11A (Homo sapiens) (UniProt Q9UQ88).
T1 sequence (whole entry): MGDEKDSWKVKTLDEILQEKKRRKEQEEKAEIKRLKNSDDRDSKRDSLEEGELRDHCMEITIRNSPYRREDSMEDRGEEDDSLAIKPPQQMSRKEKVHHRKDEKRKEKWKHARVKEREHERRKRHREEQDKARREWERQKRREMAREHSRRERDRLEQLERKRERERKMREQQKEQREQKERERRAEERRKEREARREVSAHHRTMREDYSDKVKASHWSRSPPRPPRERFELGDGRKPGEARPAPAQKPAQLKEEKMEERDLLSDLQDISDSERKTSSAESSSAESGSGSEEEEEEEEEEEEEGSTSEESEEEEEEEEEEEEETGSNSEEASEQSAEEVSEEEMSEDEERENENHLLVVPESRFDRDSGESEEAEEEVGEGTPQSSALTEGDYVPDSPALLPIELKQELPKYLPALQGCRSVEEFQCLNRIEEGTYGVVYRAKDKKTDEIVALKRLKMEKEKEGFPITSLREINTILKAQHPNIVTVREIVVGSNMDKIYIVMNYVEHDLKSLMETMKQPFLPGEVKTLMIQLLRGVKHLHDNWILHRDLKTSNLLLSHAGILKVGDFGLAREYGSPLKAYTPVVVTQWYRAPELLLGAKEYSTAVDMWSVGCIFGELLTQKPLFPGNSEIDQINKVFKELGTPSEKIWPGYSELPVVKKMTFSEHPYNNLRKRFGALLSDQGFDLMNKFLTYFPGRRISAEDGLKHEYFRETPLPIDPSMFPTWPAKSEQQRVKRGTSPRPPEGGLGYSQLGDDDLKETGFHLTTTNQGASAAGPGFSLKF
The assay can be described thus: Selectivity interaction (KinomeScan (DiscoverX)) EUB0000045b CDK11A.

The target in assay [9] is Serine/threonine-protein kinase RIO2 (Homo sapiens) (UniProt Q9BVS4). As to the kind of experiment: Selectivity interaction (KinomeScan (DiscoverX)) EUB0000045b RIOK2.
Chain of Serine/threonine-protein kinase RIO2 (Homo sapiens) (Q9BVS4 whole entry, looked up): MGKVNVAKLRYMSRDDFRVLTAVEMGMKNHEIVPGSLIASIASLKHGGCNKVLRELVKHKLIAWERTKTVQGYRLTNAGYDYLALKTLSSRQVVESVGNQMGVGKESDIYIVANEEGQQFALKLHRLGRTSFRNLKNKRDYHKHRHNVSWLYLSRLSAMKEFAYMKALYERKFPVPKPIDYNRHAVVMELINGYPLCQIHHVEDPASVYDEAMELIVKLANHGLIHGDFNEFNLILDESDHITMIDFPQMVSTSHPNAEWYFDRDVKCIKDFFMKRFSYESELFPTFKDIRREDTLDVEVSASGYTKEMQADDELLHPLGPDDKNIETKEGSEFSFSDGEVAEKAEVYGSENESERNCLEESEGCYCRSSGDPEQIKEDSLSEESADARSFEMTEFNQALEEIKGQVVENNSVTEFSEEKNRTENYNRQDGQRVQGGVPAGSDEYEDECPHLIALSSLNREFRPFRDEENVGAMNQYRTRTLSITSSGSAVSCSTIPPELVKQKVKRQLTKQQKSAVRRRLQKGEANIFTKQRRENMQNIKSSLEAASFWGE
In assay [10] the target is Ribosomal protein S6 kinase alpha-6 (Homo sapiens, UniProt Q9UK32). The assay can be described thus: Selectivity interaction (KinomeScan (DiscoverX)) EUB0000045b RPS6KA6.
Chain of Ribosomal protein S6 kinase alpha-6 (Q9UK32 whole entry): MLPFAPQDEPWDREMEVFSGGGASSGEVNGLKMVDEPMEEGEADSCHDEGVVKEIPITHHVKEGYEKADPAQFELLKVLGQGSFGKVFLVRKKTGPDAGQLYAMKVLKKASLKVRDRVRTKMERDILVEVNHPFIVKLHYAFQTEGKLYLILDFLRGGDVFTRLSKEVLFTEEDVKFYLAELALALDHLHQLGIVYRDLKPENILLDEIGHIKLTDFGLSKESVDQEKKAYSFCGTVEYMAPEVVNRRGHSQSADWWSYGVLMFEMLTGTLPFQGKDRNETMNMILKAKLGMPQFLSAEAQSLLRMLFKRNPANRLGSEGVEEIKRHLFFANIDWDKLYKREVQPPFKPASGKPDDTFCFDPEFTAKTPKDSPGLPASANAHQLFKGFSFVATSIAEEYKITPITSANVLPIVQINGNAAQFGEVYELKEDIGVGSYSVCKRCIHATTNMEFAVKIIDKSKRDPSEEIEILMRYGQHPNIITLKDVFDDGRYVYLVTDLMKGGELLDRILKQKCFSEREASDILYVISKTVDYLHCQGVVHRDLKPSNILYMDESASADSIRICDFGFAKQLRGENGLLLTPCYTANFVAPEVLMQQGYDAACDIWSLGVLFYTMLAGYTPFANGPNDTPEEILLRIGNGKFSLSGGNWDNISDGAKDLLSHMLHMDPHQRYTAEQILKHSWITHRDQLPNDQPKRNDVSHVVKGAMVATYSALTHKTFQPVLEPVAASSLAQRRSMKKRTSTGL
For assay [11], the target named is T1, Cyclin-dependent kinase 11A (Homo sapiens). As to the kind of experiment: Selectivity interaction (KinomeScan (DiscoverX)) EUB0000666a CDK11A. Particulars: at 10 µM.
The target of assay [12] is Activin receptor type-2A (Homo sapiens) (UniProt P27037). The assay can be described thus: Selectivity interaction (LanthaScreen Eu Kinase Binding Assay) EUB0001632a ACVR2A. The following applies: at 10 µM.
Assay [13] deals with Leucine-rich repeat serine/threonine-protein kinase 2 (Homo sapiens), Q5S007 [G2019S]. The assay can be described thus: (§1) Selectivity interaction (KinomeScan (DiscoverX)) EUB0000607a LRRK2. The following applies: at 10 µM.
Chain of Leucine-rich repeat serine/threonine-protein kinase 2 (Homo sapiens), Q5S007 [G2019S] (Q5S007 whole entry G2019S): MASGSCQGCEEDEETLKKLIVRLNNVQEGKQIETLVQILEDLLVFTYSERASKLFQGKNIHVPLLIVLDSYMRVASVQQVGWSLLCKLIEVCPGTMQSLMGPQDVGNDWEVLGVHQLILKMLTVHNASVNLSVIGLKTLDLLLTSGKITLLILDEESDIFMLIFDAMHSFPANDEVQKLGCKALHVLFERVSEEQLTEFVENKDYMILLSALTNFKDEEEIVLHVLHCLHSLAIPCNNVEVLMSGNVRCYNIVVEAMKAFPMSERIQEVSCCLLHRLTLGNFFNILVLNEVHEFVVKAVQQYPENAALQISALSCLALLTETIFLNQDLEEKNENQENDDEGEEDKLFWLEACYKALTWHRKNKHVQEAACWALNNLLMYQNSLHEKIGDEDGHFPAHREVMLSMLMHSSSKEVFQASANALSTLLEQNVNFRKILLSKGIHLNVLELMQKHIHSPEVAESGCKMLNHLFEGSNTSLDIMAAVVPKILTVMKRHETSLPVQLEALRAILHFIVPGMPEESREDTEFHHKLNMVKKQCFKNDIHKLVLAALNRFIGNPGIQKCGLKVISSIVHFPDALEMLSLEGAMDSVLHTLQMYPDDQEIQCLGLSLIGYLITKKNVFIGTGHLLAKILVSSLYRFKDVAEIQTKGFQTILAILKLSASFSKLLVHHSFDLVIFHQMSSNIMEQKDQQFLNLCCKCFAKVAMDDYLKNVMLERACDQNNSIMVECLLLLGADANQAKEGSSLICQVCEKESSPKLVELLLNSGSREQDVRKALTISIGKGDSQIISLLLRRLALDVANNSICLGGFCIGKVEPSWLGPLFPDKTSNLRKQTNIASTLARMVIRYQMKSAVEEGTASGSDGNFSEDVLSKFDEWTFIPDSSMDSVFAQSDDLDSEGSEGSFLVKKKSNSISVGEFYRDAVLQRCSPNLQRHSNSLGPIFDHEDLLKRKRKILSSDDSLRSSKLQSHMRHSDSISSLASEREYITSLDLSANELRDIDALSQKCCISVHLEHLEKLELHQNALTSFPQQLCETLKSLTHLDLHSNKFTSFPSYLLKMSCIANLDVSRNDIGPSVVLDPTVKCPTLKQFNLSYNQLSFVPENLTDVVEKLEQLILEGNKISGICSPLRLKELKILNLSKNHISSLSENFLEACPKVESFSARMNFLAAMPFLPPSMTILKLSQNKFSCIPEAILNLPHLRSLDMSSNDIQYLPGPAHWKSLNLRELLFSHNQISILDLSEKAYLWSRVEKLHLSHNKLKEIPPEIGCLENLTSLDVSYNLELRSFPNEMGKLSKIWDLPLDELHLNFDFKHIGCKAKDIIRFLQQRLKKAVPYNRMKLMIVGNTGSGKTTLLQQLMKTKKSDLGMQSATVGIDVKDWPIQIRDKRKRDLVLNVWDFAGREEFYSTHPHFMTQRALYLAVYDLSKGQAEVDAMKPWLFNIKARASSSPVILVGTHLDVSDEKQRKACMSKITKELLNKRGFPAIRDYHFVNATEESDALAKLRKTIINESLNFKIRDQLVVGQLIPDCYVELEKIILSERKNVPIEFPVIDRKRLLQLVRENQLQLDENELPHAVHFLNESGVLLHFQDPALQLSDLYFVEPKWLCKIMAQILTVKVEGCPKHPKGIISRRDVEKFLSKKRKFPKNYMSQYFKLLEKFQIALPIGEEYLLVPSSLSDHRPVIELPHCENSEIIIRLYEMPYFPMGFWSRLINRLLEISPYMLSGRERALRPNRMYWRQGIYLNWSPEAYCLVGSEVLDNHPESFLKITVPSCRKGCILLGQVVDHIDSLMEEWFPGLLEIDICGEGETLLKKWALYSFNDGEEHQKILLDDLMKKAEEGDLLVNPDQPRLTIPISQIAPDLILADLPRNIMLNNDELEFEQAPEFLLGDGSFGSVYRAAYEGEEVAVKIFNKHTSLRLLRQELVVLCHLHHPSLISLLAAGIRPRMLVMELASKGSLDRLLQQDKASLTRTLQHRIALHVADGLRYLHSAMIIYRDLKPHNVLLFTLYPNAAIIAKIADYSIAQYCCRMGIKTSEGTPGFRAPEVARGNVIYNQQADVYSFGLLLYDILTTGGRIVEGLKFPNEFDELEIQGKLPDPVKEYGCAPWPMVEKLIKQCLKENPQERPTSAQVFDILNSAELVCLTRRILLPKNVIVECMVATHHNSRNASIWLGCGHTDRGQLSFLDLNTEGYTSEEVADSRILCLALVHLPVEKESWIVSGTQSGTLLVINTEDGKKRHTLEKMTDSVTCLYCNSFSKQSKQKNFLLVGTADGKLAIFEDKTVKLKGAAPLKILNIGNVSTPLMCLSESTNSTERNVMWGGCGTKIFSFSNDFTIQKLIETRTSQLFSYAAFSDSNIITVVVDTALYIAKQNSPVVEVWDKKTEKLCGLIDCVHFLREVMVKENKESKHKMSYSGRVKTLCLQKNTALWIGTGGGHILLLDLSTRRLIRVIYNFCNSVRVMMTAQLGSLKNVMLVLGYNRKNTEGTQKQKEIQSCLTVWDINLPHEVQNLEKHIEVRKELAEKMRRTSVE
Assay [14] addresses T2, Leucine-rich repeat serine/threonine-protein kinase 2 (Homo sapiens, UniProt Q5S007). Described as §1. Particulars: at 10 µM.
For assay [15], the target named is Dual specificity mitogen-activated protein kinase kinase 1 (Homo sapiens, UniProt Q02750). As to the kind of experiment: Selectivity interaction (KinomeScan (DiscoverX)) EUB0000607a MAP2K1. Particulars: at 10 µM.
Chain of Dual specificity mitogen-activated protein kinase kinase 1 (Q02750 whole entry): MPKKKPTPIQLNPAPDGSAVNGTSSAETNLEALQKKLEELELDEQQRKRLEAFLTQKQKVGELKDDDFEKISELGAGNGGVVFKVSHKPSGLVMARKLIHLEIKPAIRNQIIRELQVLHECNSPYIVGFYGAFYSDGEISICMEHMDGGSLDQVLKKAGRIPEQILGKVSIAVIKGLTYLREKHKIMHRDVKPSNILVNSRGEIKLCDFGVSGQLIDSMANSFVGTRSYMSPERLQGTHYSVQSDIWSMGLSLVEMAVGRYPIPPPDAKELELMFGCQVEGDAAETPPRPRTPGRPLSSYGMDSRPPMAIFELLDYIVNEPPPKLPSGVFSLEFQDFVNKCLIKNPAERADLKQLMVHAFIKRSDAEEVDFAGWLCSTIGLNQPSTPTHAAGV
Assay [16] has as its target T2, Leucine-rich repeat serine/threonine-protein kinase 2. The assay can be described thus: Selectivity interaction (Kinase panel (Invitrogen)) EUB0000639a LRRK2. The following applies: at 200 nM.
The target in assay [17] is MAP/microtubule affinity-regulating kinase 3 (Homo sapiens) (UniProt P27448). The assay can be described thus: Selectivity interaction (ActivX KiNativ screen (kinase selectivity in THP-1 cell lysates)) EUB0000639a MARK3. Type of assay: subcellular. Particulars: lysate, at 1 µM.
For assay [18], the target named is Rho-associated protein kinase 2 (Homo sapiens, UniProt O75116). As to the kind of experiment: Selectivity interaction (Kinase panel (Invitrogen)) EUB0000639a ROCK2. Particulars: at 200 nM.
Assay [19] concerns the target T3, Aurora kinase A (Homo sapiens) (UniProt O14965).
T3 sequence (whole entry): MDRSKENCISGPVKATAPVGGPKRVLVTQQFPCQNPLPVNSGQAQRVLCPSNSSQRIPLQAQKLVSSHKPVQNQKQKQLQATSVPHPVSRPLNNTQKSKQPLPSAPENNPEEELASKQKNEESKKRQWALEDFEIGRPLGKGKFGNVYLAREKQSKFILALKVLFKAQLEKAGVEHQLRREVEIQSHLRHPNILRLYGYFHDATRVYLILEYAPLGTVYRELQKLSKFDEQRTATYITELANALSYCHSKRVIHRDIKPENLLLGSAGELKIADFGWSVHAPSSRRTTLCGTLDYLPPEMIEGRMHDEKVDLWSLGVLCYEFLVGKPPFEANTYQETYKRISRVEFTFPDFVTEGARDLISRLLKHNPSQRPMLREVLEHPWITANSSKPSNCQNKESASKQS
As to the kind of experiment: Selectivity interaction (KinomeScan (DiscoverX)) EUB0000595a STK6. Particulars: at 10 µM.

Assay [20] concerns the target Serine/threonine-protein kinase OSR1 (Homo sapiens) (UniProt O95747). The assay can be described thus: Selectivity interaction (KinomeScan (DiscoverX)) EUB0001619a OXSR1. The following applies: at 1 µM.
For assay [21], the target named is Serine/threonine-protein kinase 35 (Homo sapiens) (UniProt Q8TDR2). The assay can be described thus: Selectivity interaction (KinomeScan (DiscoverX)) EUB0001619a STK35. Particulars: at 1 µM.
The target of assay [22] is Receptor tyrosine-protein kinase erbB-4 (Homo sapiens, UniProt Q15303). The assay can be described thus: Selectivity interaction (KinomeScan (DiscoverX)) EUB0000618a ERBB4. Particulars: at 10 µM.

The text below walks through data of ChEMBL document CHEMBL5465560, “Selectivity Literature for EUbOPEN Chemogenomic Library” (2024).

T2 sequence (Q5S007 whole entry): as the sequence (Q5S007 whole entry G2019S) above, with S2019G counted along it
Chain of Mitogen-activated protein kinase kinase kinase kinase 5 (Homo sapiens) (Q9Y4K4 whole entry, looked up): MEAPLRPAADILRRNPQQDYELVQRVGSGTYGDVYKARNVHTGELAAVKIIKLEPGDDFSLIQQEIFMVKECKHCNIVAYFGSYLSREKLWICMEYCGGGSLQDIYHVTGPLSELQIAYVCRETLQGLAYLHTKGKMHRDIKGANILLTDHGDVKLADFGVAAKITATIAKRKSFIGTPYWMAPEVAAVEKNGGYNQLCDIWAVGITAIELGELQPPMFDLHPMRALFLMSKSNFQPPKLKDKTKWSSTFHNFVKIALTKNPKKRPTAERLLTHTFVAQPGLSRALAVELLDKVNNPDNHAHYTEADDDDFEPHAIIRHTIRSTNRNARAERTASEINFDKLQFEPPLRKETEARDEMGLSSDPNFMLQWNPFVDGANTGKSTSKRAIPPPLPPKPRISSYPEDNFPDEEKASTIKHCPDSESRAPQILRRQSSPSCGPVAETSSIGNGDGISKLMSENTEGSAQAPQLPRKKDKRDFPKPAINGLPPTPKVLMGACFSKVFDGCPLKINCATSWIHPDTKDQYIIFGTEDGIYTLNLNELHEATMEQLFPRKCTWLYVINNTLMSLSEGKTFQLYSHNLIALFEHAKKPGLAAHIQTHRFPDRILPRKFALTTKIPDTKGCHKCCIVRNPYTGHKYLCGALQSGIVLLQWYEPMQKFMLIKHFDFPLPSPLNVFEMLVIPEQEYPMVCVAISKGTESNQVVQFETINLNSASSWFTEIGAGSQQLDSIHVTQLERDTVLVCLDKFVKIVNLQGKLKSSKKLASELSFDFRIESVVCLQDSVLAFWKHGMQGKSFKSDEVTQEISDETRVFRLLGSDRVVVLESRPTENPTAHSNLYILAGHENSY

Consider `C=CC(=O)Nc1cccc(C(=O)Nc2ccc(Nc3cc(-c4[nH]c(SC)nc4C)ccn3)cc2)c1`, for which the figures for the % of control in assay [1] (at 1 µM) and in assay [1] (at 5 µM) were 71% and 49%, respectively. For `Cc1cc([C@@H](C)Nc2ccccc2C(=O)O)c2nc(N3CCOCC3)cc(=O)n2c1` [AZD-6482], the % of control in assay [2] stood at 83%. In turn, `CCC(=O)N1CCN(c2ccc(-n3c(=O)ccc4cnc5ccc(-c6cnc7ccccc7c6)cc5c43)cc2C(F)(F)F)CC1` came in with a % of control in assay [3] of 91%.

As to `CC[C@@H](Nc1c(C#N)c(-c2ccc(-c3cccc(C)c3F)cc2)nc2cnccc12)C(=O)O` [BAY-091], the % of inhibition in assay [4] stood at 24.9%. In the case of `Cc1cc(F)c(C(=O)Nc2cccc(-c3nncn3C(C)C)n2)cc1-n1cnc(C2CC2)c1`, the % of control in assay [5] is 80%; in assay [6], 100%. `Cc1cc(CN)cc(C)c1-c1ncn(C)c1-c1cncn1C`: the dTagg in assay [7] amounted to 0 K. As to `C=CC(=O)Nc1cc(-n2c(=O)ccc3cnc4ccc(-c5ccc(NS(C)(=O)=O)cc5)cc4c32)ccc1C`, the % of control in [8] (at 1 µM) came out at 90%; in assay [8] (at 10 µM), 44%; in assay [9] (at 1 µM), 66%; in assay [9] (at 10 µM), 43%; in [10] (at 1 µM) it was 100%; in [10] (at 10 µM) it was 56%.

In the case of `O=C(NOC[C@H](O)CO)c1ccc(F)c(F)c1Nc1ccc(I)cc1F`, the % of control in assay [11] came to 100%.

As to `Cn1cc(-n2cnc3c(NCc4nc5cc(Cl)c(Cl)cc5[nH]4)nc(N4CCOCC4)nc32)cn1`, in assay [12], the % of inhibition was -39.5%. With `CNC(=O)Nc1ccc(-c2nc(N3CC4CCC(C3)O4)c3cnn(C4CCC5(CC4)OCCO5)c3n2)cc1`, the % of control amounted to 65% in [13], 82% in assay [14] and 100% in assay [15]. For the compound `CC[C@@H]1[C@H](F)C(=O)N[C@@H]1COc1nccc2cc(C(N)=O)c(OC)cc12` [ZIMLOVISERTIB], the % of inhibition in assay [16] turned out to be 75.5%; in assay [17], 4.3%; in assay [18] it was 18.6%. For `COCC(=O)NC/C=C/c1ccc2ncnc(Nc3ccc(Oc4ccc(C)nc4)c(C)c3)c2c1` [CP-724714], the % of control in assay [19] was determined as 100%. Take `N#Cc1cccc(-c2c[nH]c3ncnc(N4CCOCC4)c23)c1`: the % of control in assay [20] stood at 90%; in assay [21], 62%.

`O[C@H]1CC[C@H](Nc2ncc3nc(Nc4c(F)cc(F)cc4F)n([C@H]4CCOC4)c3n2)CC1`: in assay [22], the % of control was determined as 56%.
